In PubChem BioAssay (NCI):
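Five concentrations, 48 hours, 96-well plates. TGI denotes the concentration required for complete inhibition of growth.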

What was measured:
Experiment in all cases: NCI-60 cell line screen, 48 h
SF-295 CNS = tested on: SF-295 CNS
A549 NSCLC = tested on: A549 NSCLC
M14 melanoma = tested on: M14 melanoma
TK-10 renal = tested on: TK-10 renal
UACC-257 melanoma = tested on: UACC-257 melanoma
MCF7 breast = tested on: MCF7 breast
OVCAR-3 ovarian = tested on: OVCAR-3 ovarian
ACHN renal = tested on: ACHN renal
OVCAR-8 ovarian = tested on: OVCAR-8 ovarian
A498 renal = tested on: A498 renal

Structure (SMILES): Cc1cnc2[nH]c(-c3cccc(Cl)c3)cc(=O)c2c1
- TGI (SF-295 CNS): 1.64 µM
- TGI (A549 NSCLC): > 100 µM
- TGI (M14 melanoma): > 100 µM
- TGI (TK-10 renal): > 100 µM
- TGI (UACC-257 melanoma): > 100 µM
- TGI (MCF7 breast): > 100 µM
- TGI (OVCAR-3 ovarian): 0.0755 µM
- TGI (ACHN renal): > 100 µM
- TGI (OVCAR-8 ovarian): > 100 µM
- TGI (A498 renal): > 100 µM

Structure (SMILES): O=C1C(CN2CCCC2)CCCC1CN1CCCC1 (stereo not given)
- TGI (SF-295 CNS): > 56.4 µM
- TGI (A549 NSCLC): 39.3 µM
- TGI (M14 melanoma): 3.3 µM
- TGI (TK-10 renal): 5.5 µM
- TGI (UACC-257 melanoma): 4.39 µM
- TGI (MCF7 breast): 2.8 µM
- TGI (OVCAR-3 ovarian): 9.62 µM
- TGI (ACHN renal): 3.42 µM
- TGI (OVCAR-8 ovarian): 10.5 µM
- TGI (A498 renal): 38.7 µM

Structure (SMILES): Cc1nc2ccccc2cc1C[N+]12CN3CN(CN(C3)C1)C2
- TGI (SF-295 CNS): 54.6 µM
- TGI (A549 NSCLC): > 100 µM
- TGI (M14 melanoma): 39.1 µM
- TGI (TK-10 renal): 63.4 µM
- TGI (UACC-257 melanoma): 35.5 µM
- TGI (MCF7 breast): 27.7 µM
- TGI (OVCAR-3 ovarian): 86.2 µM
- TGI (ACHN renal): 38.5 µM
- TGI (OVCAR-8 ovarian): > 100 µM
- TGI (A498 renal): 47.8 µM

Structure (SMILES): CN1CCN(c2c(O)c3c(c(O)c2Cl)C(=O)C=CC3=O)CC1
- TGI (SF-295 CNS): 3.22 µM
- TGI (A549 NSCLC): 4.27 µM
- TGI (M14 melanoma): 0.843 µM
- TGI (TK-10 renal): 1.58 µM
- TGI (UACC-257 melanoma): 1.58 µM
- TGI (MCF7 breast): 0.576 µM
- TGI (OVCAR-3 ovarian): 1.47 µM
- TGI (ACHN renal): 0.806 µM
- TGI (OVCAR-8 ovarian): 0.656 µM
- TGI (A498 renal): 4.54 µM

Structure (SMILES): COc1cc([C@@H]2c3cc4c(cc3[C@@H](Nc3ccc(NC(=O)c5cc(NC(=O)c6cc([N+](=O)[O-])cn6C)cn5C)cc3)[C@H]3COC(=O)[C@H]23)OCO4)cc(OC)c1O
- TGI (SF-295 CNS): > 100 µM
- TGI (A549 NSCLC): > 49.9 µM
- TGI (M14 melanoma): 47.7 µM
- TGI (TK-10 renal): > 100 µM
- TGI (UACC-257 melanoma): > 82.4 µM
- TGI (MCF7 breast): > 39.1 µM
- TGI (OVCAR-3 ovarian): > 100 µM
- TGI (ACHN renal): 12.1 µM
- TGI (OVCAR-8 ovarian): 89.8 µM
- TGI (A498 renal): > 52.9 µM

Structure (SMILES): COc1cnnc2c(C)c(-c3ccccc3)nn12
- TGI (SF-295 CNS): > 100 µM
- TGI (A549 NSCLC): > 100 µM
- TGI (M14 melanoma): > 100 µM
- TGI (TK-10 renal): > 100 µM
- TGI (UACC-257 melanoma): > 100 µM
- TGI (MCF7 breast): > 100 µM
- TGI (OVCAR-3 ovarian): > 100 µM
- TGI (ACHN renal): > 100 µM
- TGI (OVCAR-8 ovarian): > 100 µM
- TGI (A498 renal): > 100 µM

Structure (SMILES): CC1CN=C(N(C)C(=O)Nc2ccc(Cl)c(Cl)c2)S1 (stereo not given)
- TGI (SF-295 CNS): > 100 µM
- TGI (A549 NSCLC): > 100 µM
- TGI (M14 melanoma): 38 µM
- TGI (TK-10 renal): 92.5 µM
- TGI (UACC-257 melanoma): > 100 µM
- TGI (MCF7 breast): 59.7 µM
- TGI (OVCAR-3 ovarian): > 100 µM
- TGI (ACHN renal): > 100 µM
- TGI (OVCAR-8 ovarian): > 100 µM
- TGI (A498 renal): > 100 µM

Structure (SMILES): COc1cc(C2c3cc4c(cc3OC(N3CCOCC3)C2C)OCO4)cc(OC)c1OC(C)=O (stereo not given)
- TGI (SF-295 CNS): 49 µM
- TGI (A549 NSCLC): > 100 µM
- TGI (M14 melanoma): > 56.8 µM
- TGI (TK-10 renal): > 100 µM
- TGI (UACC-257 melanoma): > 100 µM
- TGI (MCF7 breast): > 100 µM
- TGI (OVCAR-3 ovarian): 59.4 µM
- TGI (ACHN renal): > 100 µM
- TGI (OVCAR-8 ovarian): > 100 µM
- TGI (A498 renal): 81.3 µM

Structure (SMILES): CC(C)C(/C=C/c1ccccc1)=N\NC(=S)NN
- TGI (SF-295 CNS): > 100 µM
- TGI (A549 NSCLC): > 100 µM
- TGI (M14 melanoma): > 100 µM
- TGI (TK-10 renal): > 100 µM
- TGI (UACC-257 melanoma): > 100 µM
- TGI (MCF7 breast): > 76.6 µM
- TGI (OVCAR-3 ovarian): > 88.8 µM
- TGI (ACHN renal): > 100 µM
- TGI (OVCAR-8 ovarian): > 100 µM
- TGI (A498 renal): > 100 µM

Structure (SMILES): CCOC(=O)C1=CN(C(=O)c2ccccc2)CCC1Cc1ccccc1 (stereo not given)
- TGI (SF-295 CNS): > 100 µM
- TGI (A549 NSCLC): > 100 µM
- TGI (M14 melanoma): 37.1 µM
- TGI (TK-10 renal): 75.3 µM
- TGI (UACC-257 melanoma): 34.3 µM
- TGI (MCF7 breast): 64 µM
- TGI (OVCAR-3 ovarian): > 100 µM
- TGI (ACHN renal): 63.6 µM
- TGI (OVCAR-8 ovarian): 88.4 µM
- TGI (A498 renal): 39.4 µM

Structure (SMILES): CCOC(=O)/C=C(/C(=O)OCC)n1ccc(=O)[nH]c1=O
- TGI (SF-295 CNS): 34.7 µM
- TGI (A549 NSCLC): 33.8 µM
- TGI (M14 melanoma): 13.2 µM
- TGI (TK-10 renal): 10.5 µM
- TGI (UACC-257 melanoma): 25.2 µM
- TGI (MCF7 breast): 14.9 µM
- TGI (OVCAR-3 ovarian): 12.8 µM
- TGI (ACHN renal): 14.6 µM
- TGI (OVCAR-8 ovarian): 27.4 µM
- TGI (A498 renal): 38.2 µM

Structure (SMILES): C=C1[C@H](OCC(C)C)[C@@H](OC(=O)C(C)CC)[C@@H](O)C(C)(C)/C=C/[C@H](C)C(=O)[C@@]2(O)C[C@H](C)[C@H](O)[C@@H]2[C@H]1OC(=O)C(C)CC (stereo not given in full)
- TGI (SF-295 CNS): > 16.9 µM
- TGI (A549 NSCLC): > 20 µM
- TGI (M14 melanoma): > 11.1 µM
- TGI (TK-10 renal): > 19.3 µM
- TGI (UACC-257 melanoma): > 14.1 µM
- TGI (MCF7 breast): > 16 µM
- TGI (OVCAR-3 ovarian): > 13.7 µM
- TGI (ACHN renal): > 13 µM
- TGI (OVCAR-8 ovarian): > 20 µM
- TGI (A498 renal): 12.2 µM

Structure (SMILES): COC1=CCC2=C(CCN(C(=O)C3CCC3)C2Cc2ccc(OC)c(O)c2)C1 (stereo not given)
- TGI (SF-295 CNS): 45.4 µM
- TGI (A549 NSCLC): > 100 µM
- TGI (M14 melanoma): 78.9 µM
- TGI (TK-10 renal): 64.5 µM
- TGI (UACC-257 melanoma): > 100 µM
- TGI (MCF7 breast): 50.1 µM
- TGI (OVCAR-3 ovarian): 27.4 µM
- TGI (ACHN renal): > 100 µM
- TGI (OVCAR-8 ovarian): > 100 µM
- TGI (A498 renal): 84.5 µM

Structure (SMILES): O=Cc1cc(O)c(O)c(/C=N/n2c3ccccc3c3ccccc32)c1
- TGI (SF-295 CNS): 27.7 µM
- TGI (A549 NSCLC): > 100 µM
- TGI (M14 melanoma): 23.6 µM
- TGI (TK-10 renal): 82 µM
- TGI (UACC-257 melanoma): 27.9 µM
- TGI (MCF7 breast): 4.62 µM
- TGI (OVCAR-3 ovarian): 10.1 µM
- TGI (ACHN renal): 21.1 µM
- TGI (OVCAR-8 ovarian): 18.7 µM
- TGI (A498 renal): 49.8 µM

Structure (SMILES): O=[N+]([O-])c1cc(Cl)ccc1S(=O)(=O)c1cc(Cl)cc2c1NCCC2
- TGI (SF-295 CNS): > 100 µM
- TGI (A549 NSCLC): > 100 µM
- TGI (M14 melanoma): > 100 µM
- TGI (TK-10 renal): > 100 µM
- TGI (UACC-257 melanoma): 64.8 µM
- TGI (MCF7 breast): > 100 µM
- TGI (OVCAR-3 ovarian): > 100 µM
- TGI (ACHN renal): > 100 µM
- TGI (OVCAR-8 ovarian): > 100 µM
- TGI (A498 renal): > 100 µM

Structure (SMILES): Cc1ccsc1/C=N/Nc1ccccn1
- TGI (SF-295 CNS): > 100 µM
- TGI (A549 NSCLC): > 100 µM
- TGI (M14 melanoma): > 100 µM
- TGI (TK-10 renal): > 100 µM
- TGI (UACC-257 melanoma): > 100 µM
- TGI (MCF7 breast): > 100 µM
- TGI (OVCAR-3 ovarian): > 100 µM
- TGI (ACHN renal): > 100 µM
- TGI (OVCAR-8 ovarian): > 100 µM
- TGI (A498 renal): > 100 µM
